Results reported in ChEMBL document CHEMBL1123013, “Synthesis and neuroleptic activity of 3-(1-substituted-4-piperidinyl)-1,2-benzisoxazoles” (J Med Chem, 1985).

Species on record: Mus musculus
Assay: animal or person
Conditions: ip
Description: Neuroleptic activity in vivo by ability to antagonise climbing in apomorphine dosed mice after intraperitoneal administration.
COc1ccc2c(C3CCN(CCCn4c(O)nc5ccccc54)CC3)noc2c1 was tested, and the ED50 was > 10 mg/kg. For Fc1ccc(C(CCCN2CCC(c3noc4ccccc34)CC2)c2ccc(F)cc2)cc1, the ED50 was 1.6 mg/kg. With Oc1ccc2onc(C3CCN(CCCC(c4ccc(F)cc4)c4ccc(F)cc4)CC3)c2c1 the ED50 was > 10 mg/kg. In the case of COc1cc2onc(C3CCN(CCCn4c(O)nc5ccccc54)CC3)c2cc1OC, the ED50 is reported as > 10 mg/kg. Oc1nc2ccccc2n1CCCN1CCC(c2noc3cc(F)ccc23)CC1 was tested, and the ED50 was 0.09 mg/kg. For Fc1ccc(C(CCCN2CCC(c3noc4ccc(F)cc34)CC2)c2ccc(F)cc2)cc1, the ED50 was 1.6 mg/kg. In the case of COc1cc2onc(C3CCN(CCCc4c(C)[nH]c5ccccc45)CC3)c2cc1OC, the ED50 is reported as > 10 mg/kg. With Cc1[nH]c2ccccc2c1CCCN1CCC(c2noc3ccc(O)cc23)CC1 the ED50 was > 10 mg/kg. With Oc1nc2ccccc2n1CCCN1CCC(c2noc3cc(Cl)ccc23)CC1 the ED50 was 0.8 mg/kg. Cc1[nH]c2ccccc2c1CCCN1CCC(c2noc3cc(Cl)ccc23)CC1 was tested, and the ED50 was 4.1 mg/kg. With Cc1[nH]c2ccccc2c1CCCN1CCC(c2noc3ccccc23)CC1 the ED50 was 1.1 mg/kg. In the case of COc1cc2onc(C3CCN(CCCc4noc5cc(F)ccc45)CC3)c2cc1OC, the ED50 is reported as > 10 mg/kg. For Oc1nc2ccccc2n1CCCN1CCC(c2noc3cccc(F)c23)CC1, the ED50 was 5.3 mg/kg. Compound Fc1ccc2c(CCCN3CCC(c4noc5ccccc45)CC3)noc2c1 has an ED50 of 1.4 mg/kg. With Cc1[nH]c2ccccc2c1CCCN1CCC(c2noc3ccc(F)cc23)CC1 the ED50 was > 10 mg/kg. In the case of COc1ccc2onc(C3CCN(CCCc4c(C)[nH]c5ccccc45)CC3)c2c1, the ED50 is reported as > 10 mg/kg. Compound Fc1ccc2c(CCCN3CCC(c4noc5cc(F)ccc45)CC3)noc2c1 has an ED50 of 0.08 mg/kg. For O=C(c1ccccc1)C1CCNCC1, the ED50 was 1.3 mg/kg. Oc1nc2ccccc2n1CCCN1CCC(c2noc3ccc(F)cc23)CC1 was tested, and the ED50 was > 10 mg/kg. Fc1ccc2c(CCCN3CCC(c4noc5cc(Cl)ccc45)CC3)noc2c1 was tested, and the ED50 was 2 mg/kg. In the case of COc1ccc2onc(C3CCN(CCCC(c4ccc(F)cc4)c4ccc(F)cc4)CC3)c2c1, the ED50 is reported as > 10 mg/kg. COc1ccc2onc(C3CCN(CCCc4noc5cc(F)ccc45)CC3)c2c1 gave an ED50 of 7.2 mg/kg. With COc1cc2onc(C3CCN(CCCC(c4ccc(F)cc4)c4ccc(F)cc4)CC3)c2cc1OC the ED50 was > 10 mg/kg.

The compounds below were run on Dopamine receptor (assay: Ability to inhibit the binding of [3H]spiroperidol in rat striatal tissue; ND=assay not performed due to solubility problems.). Conditions: not given.
Assay type: tissue-based, Striatum
For Oc1nc2ccccc2n1CCCN1CCC(c2noc3ccccc23)CC1, the IC50 was “Insoluble”.
